pIC50: −log10 of the molar value.
Experiments:
Assay type in all cases: cell-based
[1] = target: BTK (Homo sapiens, UniProt Q06187); assay: BTK degradation, DC50 and Dmax of Table 1 (cell line not given); set-up: endogenous in cells; conditions: for DC50: concentration giving 50% reduction of BTK expression level
[2] = test system: JeKo-1 cells; assay: Antiproliferative effect, MTS cell viability assay, JeKo-1 cells; conditions: Homo sapiens; JeKo-1 mantle cell lymphoma cells; read-out: IC50 (anti-proliferation) JeKO-1 cells
In short: (§1)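 Tested at six concentrations (0 to 10 μM in tenfold steps), 72 h; viability by MTS, A490.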

[3] = test system: Mino cells; assay: Antiproliferative effect, MTS cell viability assay, Mino cells; conditions: Homo sapiens, MINO, Mino mantle cell lymphoma cells; read-out: IC50 (anti-proliferation) Mino cells
In short: as §1

Chain of BTK (Q06187 whole entry): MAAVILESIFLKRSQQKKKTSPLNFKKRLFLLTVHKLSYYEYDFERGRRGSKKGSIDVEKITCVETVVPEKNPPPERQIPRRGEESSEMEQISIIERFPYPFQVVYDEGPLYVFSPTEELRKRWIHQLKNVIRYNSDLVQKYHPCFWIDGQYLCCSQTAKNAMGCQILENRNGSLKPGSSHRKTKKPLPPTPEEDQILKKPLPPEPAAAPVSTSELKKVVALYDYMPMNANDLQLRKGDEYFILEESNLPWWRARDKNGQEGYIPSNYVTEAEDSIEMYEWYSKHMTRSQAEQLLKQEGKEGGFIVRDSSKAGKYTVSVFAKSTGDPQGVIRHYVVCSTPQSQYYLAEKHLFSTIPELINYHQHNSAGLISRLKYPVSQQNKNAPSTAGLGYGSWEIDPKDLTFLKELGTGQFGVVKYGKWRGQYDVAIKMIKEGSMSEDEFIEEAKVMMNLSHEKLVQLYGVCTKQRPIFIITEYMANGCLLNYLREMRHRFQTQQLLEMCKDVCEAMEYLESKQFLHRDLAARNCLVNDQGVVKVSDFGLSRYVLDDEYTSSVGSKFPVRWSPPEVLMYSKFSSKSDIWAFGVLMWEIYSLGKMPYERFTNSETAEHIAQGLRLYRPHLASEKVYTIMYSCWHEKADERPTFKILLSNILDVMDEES

In the case of `Nc1ncnc2c1c(-c1ccc(Oc3ccccc3)cc1)nn2[C@@H]1CCCN(C2CCN(CC3CCN(c4ccc5c(c4)CN(C4CCC(=O)NC4=O)C5=O)CC3)CC2)C1` (stereo partly drawn) [Compound 144, 3-(5-(4-(((R)-3-(4-amino-3-(4-phenoxyphenyl)-1H-pyrazolo[3,4-d]pyrimidin-1-yl)-[1,4′-bipiperidin]-1′-yl)methyl)piperidin-1-yl)-1-oxoisoindolin-2-yl)piperidine-2,6-dione], the Dmax [1] was > 90%, the DC50 [1] was 10 to 50 nM and the pIC50 [2] was < 5.00. For the same compound, the pIC50 [3] was 5.00 to 6.00.

With `Nc1ncnc2c1c(-c1ccc(Oc3ccccc3)cc1)nn2[C@@H]1CCCN(C(=O)N2CCN(CCCN3CCC(c4ccc5c(c4)C(=O)N(C4CCC(=O)NC4=O)C5=O)CC3)CC2)C1` (stereo partly drawn) [Compound 111, 5-(1-(3-(4-((R)-3-(4-amino-3-(4-phenoxyphenyl)-1H-pyrazolo[3,4-d]pyrimidin-1-yl)piperidine-1-carbonyl)piperazin-1-yl)propyl)piperidin-4-yl)-2-(2,6-dioxopiperidin-3-yl)isoindoline-1,3-dione] the Dmax [1] was > 75%, the DC50 [1] was > 50 nM and the pIC50 [2] was 5.00 to 6.00. It also gave a pIC50 [3] of 5.00 to 6.00.

With `Nc1ncnc2c1c(-c1ccc(Oc3ccccc3)cc1)nn2[C@@H]1CCCN(C2CCN(C(=O)N3CCC(N4CCC(c5ccc6c(c5)CN(C5CCC(=O)NC5=O)C6=O)CC4)CC3)CC2)C1` (stereo partly drawn) [Compound 166, 3-(5-(1′-((R)-3-(4-amino-3-(4-phenoxyphenyl)-1H-pyrazolo[3,4-d]pyrimidin-1-yl)-[1,4′-bipiperidine]-1′-carbonyl)-[1,4′-bipiperidin]-4-yl)-1-oxoisoindolin-2-yl)piperidine-2,6-dione] the Dmax [1] was > 90%, the DC50 [1] was 10 to 50 nM and the pIC50 [2] was < 5.00. The pIC50 [3] was 5.00 to 6.00.

`Nc1ncnc2c1c(-c1ccc(Oc3ccccc3)cc1)nn2C1CCN(C(=O)N2CCN(CCCC3CCN(c4ccc5c(c4)CN(C4CCC(=O)NC4=O)C5=O)CC3)CC2)CC1` (stereo not shown) [Compound 122, 3-(5-(4-(3-(4-(4-(4-amino-3-(4-phenoxyphenyl)-1H-pyrazolo[3,4-d]pyrimidin-1-yl)piperidine-1-carbonyl)piperazin-1-yl)propyl)piperidin-1-yl)-1-oxoisoindolin-2-yl)piperidine-2,6-dione] was tested, and the Dmax [1] was > 75%, the DC50 [1] was > 50 nM and the pIC50 [2] was 5.00 to 6.00. The pIC50 [3] was 5.00 to 6.00.

`Nc1ncnc2c1c(-c1ccc(Oc3ccccc3)cc1)nn2[C@@H]1CCCN(C(=O)N2CCN(CCCC3CCN(c4ccc5c(c4)CN(C4CCC(=O)NC4=O)C5=O)CC3)CC2)C1` (stereo partly drawn) [Compound 110, 3-(5-(4-(3-(4-((R)-3-(4-amino-3-(4-phenoxyphenyl)-1H-pyrazolo[3,4-d]pyrimidin-1-yl)piperidine-1-carbonyl)piperazin-1-yl)propyl)piperidin-1-yl)-1-oxoisoindolin-2-yl)piperidine-2,6-dione] was tested, and the Dmax [1] was > 75%, the DC50 [1] was > 50 nM and the pIC50 [2] was < 5.00. For the same compound, the pIC50 [3] was < 5.00.

In the case of `Nc1ncnc2c1c(-c1ccc(Oc3ccccc3)cc1)nn2[C@@H]1CCCN(C2CCN(C(=O)N3CCN(CCCN4CCC(c5ccc6c(c5)C(=O)N(C5CCC(=O)NC5=O)C6=O)CC4)CC3)CC2)C1` (stereo partly drawn) [Compound 191, 5-(1-(3-(4-((R)-3-(4-amino-3-(4-phenoxyphenyl)-1H-pyrazolo[3,4-d]pyrimidin-1-yl)-[1,4′-bipiperidine]-1′-carbonyl)piperazin-1-yl)propyl)piperidin-4-yl)-2-(2,6-dioxopiperidin-3-yl)isoindoline-1,3-dione], the Dmax [1] was > 75%, the DC50 [1] was 10 to 50 nM and the pIC50 [2] was < 5.00. The pIC50 [3] was < 5.00.

`Nc1ncnc2c1c(-c1ccc(Oc3ccccc3)cc1)nn2C1CCN(C(=O)N2CCC(N3CCC(c4ccc5c(c4)CN(C4CCC(=O)NC4=O)C5=O)CC3)CC2)CC1` (stereo not shown) [Compound 84, 3-(5-(1′-(4-(4-amino-3-(4-phenoxyphenyl)-1H-pyrazolo[3,4-d]pyrimidin-1-yl)piperidine-1-carbonyl)-[1,4′-bipiperidin]-4-yl)-1-oxoisoindolin-2-yl)piperidine-2,6-dione] was tested, and the Dmax [1] was > 75%, the DC50 [1] was > 50 nM and the pIC50 [2] was < 5.00. For the same compound, the pIC50 [3] was < 5.00.
